This note sets out measurements from US20250042920A1 (OCEAN UNIVERSITY OF CHINA, priority 2021, published 2025).

One assay addresses MNK1 (Homo sapiens, UniProt Q9BUB5). Description: MNK1 kinase inhibition assay (LANCE Ultra kinase activity assay, PerkinElmer). Format: biochemical. The note with it: 450 μM ATP; for inhibition at 1 µM: inhibition rate at 1000 nM compound, 60 min, 25° C., read-out: Inhibitory activity(1 μM) MNK1; for IC50: five concentrations 10000-1 nM. On the procedure:
(§1) MNK1 and MNK2 kinase inhibition assays were performed using LANCE Ultra kinase activity assay developed by PerkinElmer. […] The test steps are as follows: At 25° C., 1.00 ng MNK1 or 0.05 ng MNK2 was prepared with different concentrations (10000, 1000, 100, 10, 1 nM) of the tested compound to form a total volume of 10 μL reaction mixture (MNK1: 12.5 nM CREB, 450 μM ATP, 2 mM DTT, 1× buffer; MNK2: 12.5 nM CREB, 100 μM ATP, 2 mM DTT, 1×buffer), and incubation for 60 min. The reaction was terminated by adding 5 μL EDTA/Detection buffer and 5 μL Eu-CREB/Detection buffer. The ratio of HTRF signals at 615 nm and 665 nm was detected after 60 min of incubation. The inhibition rate was calculated by measuring the compounds at 1000 nM.
(§2) Then five different concentrations (10000, 1000, 100, 10, 1 nM) of the tested compounds were measured, and the IC50 value was calculated according to the inhibition rate fitting curve.

In another assay the target is MNK2 (Homo sapiens, UniProt Q9HBH9). Description: MNK2 kinase inhibition assay (LANCE Ultra kinase activity assay, PerkinElmer). Format: biochemical. The note with it: 100 μM ATP; for inhibition at 1 µM: inhibition rate at 1000 nM compound, 60 min, 25° C., read-out: Inhibitory activity(1 μM) MNK2; for IC50: five concentrations 10000-1 nM. Here is the method: as §1, §2
MNK2, sequence (Q9HBH9 whole entry): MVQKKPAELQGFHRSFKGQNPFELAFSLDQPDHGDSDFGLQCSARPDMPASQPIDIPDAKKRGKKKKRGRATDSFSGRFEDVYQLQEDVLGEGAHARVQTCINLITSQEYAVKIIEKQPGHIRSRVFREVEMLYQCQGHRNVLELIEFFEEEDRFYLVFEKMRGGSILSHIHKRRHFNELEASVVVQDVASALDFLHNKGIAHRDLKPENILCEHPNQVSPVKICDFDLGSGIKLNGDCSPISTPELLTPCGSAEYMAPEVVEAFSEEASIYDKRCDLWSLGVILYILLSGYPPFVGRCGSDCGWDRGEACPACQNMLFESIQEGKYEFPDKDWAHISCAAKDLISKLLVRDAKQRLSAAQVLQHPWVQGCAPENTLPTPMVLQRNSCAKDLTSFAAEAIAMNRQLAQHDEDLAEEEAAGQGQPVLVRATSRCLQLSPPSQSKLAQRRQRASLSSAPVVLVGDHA
A general note: TR-FRET usually uses a lanthanide donor and a delayed reading to cut background.

MNK1, sequence (Q9BUB5 whole entry): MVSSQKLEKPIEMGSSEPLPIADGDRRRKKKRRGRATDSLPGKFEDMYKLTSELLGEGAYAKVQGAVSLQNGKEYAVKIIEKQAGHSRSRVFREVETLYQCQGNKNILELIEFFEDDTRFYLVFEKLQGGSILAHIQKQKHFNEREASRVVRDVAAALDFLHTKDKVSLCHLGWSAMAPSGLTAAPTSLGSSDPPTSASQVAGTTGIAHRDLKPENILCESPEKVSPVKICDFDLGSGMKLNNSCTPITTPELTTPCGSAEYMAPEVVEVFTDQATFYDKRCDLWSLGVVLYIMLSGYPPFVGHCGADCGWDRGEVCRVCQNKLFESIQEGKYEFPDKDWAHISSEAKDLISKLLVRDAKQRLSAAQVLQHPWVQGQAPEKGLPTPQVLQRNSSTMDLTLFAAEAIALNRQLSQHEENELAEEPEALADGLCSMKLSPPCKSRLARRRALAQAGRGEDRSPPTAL

Regarding `COC(=O)c1ccc(-c2cnc3sc(-c4ccc(C(=O)N5CCOCC5)cc4)nn23)cc1` [Compound 4], the inhibition at 1 µM at MNK1 and at MNK2 was above 75% each time.
For the compound `O=C(c1ccc(-c2nn3c(-c4ccc(Cl)cc4)cnc3s2)cc1)N1CCOCC1` [Compound 6, (4-(5-(4-chlorophenyl)imidazo[2,1-b][1,3,4]thiadiazol-2-yl)phenyl)(morpholino)methanone], the concentration for half-maximal inhibition (IC50) against MNK1 and on MNK2 was 50 to 200 nM each time. The inhibition at 1 µM on MNK1 and at MNK2 was above 75% throughout.
In the case of `CN(C)C1CCN(C(=O)c2ccc(-c3nn4c(-c5ccc(O)cc5)cnc4s3)cc2)CC1` [Compound 14, (4-(dimethylamino)piperidin-1-yl)(4-(5-(4-hydroxyphenyl)imidazo[2,1-b][1,3,4]thiadiazol-2-yl)phenyl)methanone], the 50% inhibitory concentration (IC50) on MNK1 and against MNK2 was below 50 nM in each case. The inhibition at 1 µM on MNK1 and on MNK2 was above 75% in each case.
As for `N#Cc1ccc(-c2cnc3sc(-c4ccc(C(=O)NCCCCCO)cc4)nn23)cc1` [Compound 42, 4-(5-(4-cyanophenyl)imidazo[2,1-b][1,3,4]thiadiazol-2-yl)-N-(5-hydroxypentyl)benzamide], at MNK1, the IC50 – broadly, the point on the concentration scale where inhibition reaches its midpoint – is below 50 nM and the inhibition at 1 µM was above 75%. Moreover, on MNK2, the IC50 was below 50 nM and the inhibition at 1 µM is above 75%.
As to `COC(=O)c1ccc(-c2cnc3sc(-c4ccc(C(=O)N5CCN(C)CC5)cc4)nn23)cc1` [Compound 19, methyl 4-(2-(4-(4-methylpiperazine-1-carbonyl)phenyl)imidazo[2,1-b][1,3,4]thiadiazol-5-yl)benzoate], at MNK1, the half-inhibitory concentration (IC50) lay in the range of 200 to 800 nM and the inhibition at 1 µM was above 75%. Further, at MNK2, the IC50 was 50 to 200 nM and the inhibition at 1 µM is above 75%.
For the compound `O=C(c1ccc(-c2cn3c(-c4ccc(F)cc4)csc3n2)cc1)N1CCOCC1` [Compound 44, (4-(3-(4-fluorophenyl)imidazo[2,1-b]thiazol-6-yl)phenyl)(morpholino)methanone], the inhibition at 1 µM on MNK1 and at MNK2 was 25 to 50% each time.
On to `Cc1ccc(-c2cnc3sc(-c4ccc(C(=O)N5CCOCC5)cc4)nn23)cc1` [Compound 7, morpholino(4-(5-(p-tolyl)imidazo[2,1-b][1,3,4]thiadiazol-2-yl)phenyl)methanone], for which the inhibition at 1 µM at MNK1 and on MNK2 was above 75% throughout.
Consider `O=C(c1ccc(-c2nn3c(-c4ccc(O)c(F)c4)cnc3s2)cc1)N1CCOCC1` [Compound 10, (4-(5-(3-fluoro-4-hydroxyphenyl)imidazo[2,1-b][1,3,4]thiadiazol-2-yl)phenyl)(morpholino)methanone], for which, at MNK1, the IC50 lay within 50 to 200 nM and the inhibition at 1 µM is above 75%. For the same compound, on MNK2, the 50% inhibitory concentration (IC50) is below 50 nM and the inhibition at 1 µM is above 75%.
Regarding `COc1ccc(-c2csc3nc(-c4ccc(C(=O)N5CCOCC5)cc4)cn23)cc1` [Compound 45, (4-(3-(4-methoxyphenyl)imidazo[2,1-b]thiazol-6-yl)phenyl)(morpholino)methanone], the inhibition at 1 µM on MNK1 and on MNK2 was 25 to 50% throughout.
On to `CN1CCN(C(=O)c2ccc(-c3nn4c(-c5ccc(C(F)(F)F)cc5)cnc4s3)cc2)CC1` [Compound 21, (4-methylpiperazin-1-yl)(4-(5-(4-(trifluoromethyl)phenyl)imidazo[2,1-b][1,3,4]thiadiazol-2-yl)phenyl)methanone], for which the IC50 against MNK1 and against MNK2 was below 50 nM each time. Also, the inhibition at 1 µM on MNK1 and on MNK2 was above 75% throughout.
Regarding `CN1CCN(C(=O)c2ccc(-c3nn4c(-c5ccc(F)cc5F)cnc4s3)cc2)CC1` [Compound 26, (4-(5-(2,4-difluorophenyl)imidazo[2,1-b][1,3,4]thiadiazol-2-yl)phenyl)(4-methylpiperazin-1-yl)methanone], the inhibition at 1 µM at MNK1 and on MNK2 was 25 to 50% each time.
On to `N#Cc1ccc(-c2cnc3sc(-c4ccc(C(=O)OCCN5CCCC5)cc4)nn23)cc1` [Compound 31, 2-(pyrrolidin-1-yl)ethyl 4-(5-(4-cyanophenyl)imidazo[2,1-b][1,3,4]thiadiazol-2-yl)benzoate], for which the inhibition at 1 µM on MNK1 and at MNK2 was 25 to 50% throughout.
Regarding `CN(C)C1CCN(C(=O)c2ccc(-c3cn4c(-c5ccc(C(F)(F)F)cc5)csc4n3)cc2)CC1` [Compound 54, (4-(dimethylamino)piperidin-1-yl)(4-(3-(4-(trifluoromethyl)ph-enyl)imidazo [2,1-b]thiazol-6-yl)phenyl)methanone], the inhibition at 1 µM on MNK1 and at MNK2 was 25 to 50% in each case.
`O=C(c1ccc(-c2cn3c(-c4ccc(F)cc4)csc3n2)cc1)N1CCC(N2CCOCC2)CC1` [Compound 52, 6-(4-(4-morpholinepiperidinebasecarbonyl)phenyl)-3-(4-fluorinatedphenyl) imidazole [2,1-b]thiazole compounds]: the inhibition at 1 µM at MNK1 and on MNK2 was 25 to 50% each time.
Regarding `CN1CCN(C(=O)c2ccc(-c3cn4c(-c5ccc(F)cc5)csc4n3)cc2)CC1` [Compound 49, (4-(3-(4-fluorophenyl)imidazo[2,1-b]thiazol-6-yl)phenyl)(4-methylpiperazin-1-yl)methanone], the inhibition at 1 µM on MNK1 and at MNK2 was 25 to 50% each time.
On to `N#Cc1ccc(-c2cnc3sc(-c4ccc(C(=O)N5CCCC5)cc4)nn23)cc1` [Compound 30, 4-(2-(4-(pyrrolidine-1-carbonyl)phenyl)imidazo[2,1-b][1,3,4]thiadiazol-5-yl)benzonitrile], for which the IC50 at MNK1 and against MNK2 was below 50 nM throughout. Further, the inhibition at 1 µM at MNK1 and on MNK2 was above 75% each time.
Consider `CN1CCN(C(=O)c2ccc(-c3nn4c(-c5ccc(F)nc5)cnc4s3)cc2)CC1` [Compound 28, (4-(5-(6-fluoropyridin-3-yl)imidazo[2,1-b][1,3,4]thiadiazol-2-yl)phenyl)(4-methylpiperazin-1-yl)methanone], for which the IC50 lay within 800 to 1500 nM against MNK1 and 200 to 800 nM against MNK2. The inhibition at 1 µM was 50 to 75% at MNK1 and above 75% at MNK2.
`N#Cc1ccc(-c2csc3nc(-c4ccc(C(=O)N5CCOCC5)cc4)cn23)cc1` [Compound 43, 4-(6-(4-(morpholine-4-carbonyl)phenyl)imidazo[2,1-b]thiazol-3-yl)benzonitrile]: the inhibition at 1 µM at MNK1 and on MNK2 was 25 to 50% each time.
Consider `N#Cc1ccc(-c2cnc3sc(-c4ccc(C(=O)OCCCCCO)cc4)nn23)cc1` [Compound 34, 5-hydroxypentyl 4-(5-(4-cyanophenyl)imidazo[2,1-b][1,3, 4]thiadiazol-2-yl)benzoate], for which the inhibition at 1 µM at MNK1 and on MNK2 was 25 to 50% in each case.
In the case of `CC1CCCCN1C(=O)c1ccc(-c2nn3c(-c4ccc(C#N)cc4)cnc3s2)cc1` (centres unmarked) [Compound 41, 4-(2-(4-(2-methylpiperidine-1-carbonyl)phenyl)imidazo[2,1-b][1,3,4]thiadiazol-5-yl)benzonitrile], the IC50 at MNK1 and at MNK2 was below 50 nM in each case. Moreover, the inhibition at 1 µM on MNK1 and on MNK2 was above 75% each time.
In the case of `O=C(c1ccc(-c2nn3c(-c4ccc(O)cc4)cnc3s2)cc1)N1CCOCC1` [Compound 3, (4-(5-(4-hydroxyphenyl)imidazo[2,1-b][1,3,4]thiadiazol-2-yl)phenyl)(morpholino)methanone], on MNK1, the half-inhibitory concentration (IC50) is below 50 nM and the inhibition at 1 µM is above 75%. For the same compound, at MNK2, the half-inhibitory concentration (IC50) was below 50 nM and the inhibition at 1 µM was above 75%.
For the compound `N#Cc1ccc(-c2cnc3sc(-c4ccc(C(=O)NCCO)cc4)nn23)cc1` [Compound 40, 4-(5-(4-cyanophenyl)imidazo[2,1-b][1,3,4]thiadiazol-2-yl)-N-(2-hydroxyethyl)benzamide], at MNK1, the half-maximal inhibitory concentration (IC50) was below 50 nM and the inhibition at 1 µM is above 75%. Further, at MNK2, the IC50 is below 50 nM and the inhibition at 1 µM was above 75%.
On to `N#Cc1ccc(-c2cnc3sc(-c4ccc(C(=O)NCCN5CCCC5)cc4)nn23)cc1` [Compound 38, 4-(5-(4-cyanophenyl)imidazo[2,1-b][1,3,4]thiadiazol-2-yl)-N-(2-(pyrrolidin-1-yl)ethyl)benzamide], for which, on MNK1, the IC50 was below 50 nM and the inhibition at 1 µM was above 75%. For the same compound, at MNK2, the IC50 was below 50 nM and the inhibition at 1 µM is above 75%.
For `CN1CCN(C(=O)c2ccc(-c3nn4c(-c5ccc(F)cc5)cnc4s3)cc2)CC1` [Compound 18, (4-(5-(4-fluorophenyl)imidazo[2,1-b][1,3,4]thiadiazol-2-yl)phenyl)(4-methylpiperazin-1-yl)methanone], on MNK1, the IC50 was 50 to 200 nM and the inhibition at 1 µM is above 75%. Also, on MNK2, the IC50 is below 50 nM and the inhibition at 1 µM is above 75%.
